Assay results from patent US6472391B2, “Nitrogen-containing heterocyclic compounds” (Millennium Pharmaceuticals, Inc., priority 1996, dated 2002).
Where two headings read alike, the source gives them in different places.

How the values were obtained:
[1] = tested on: Vascular smooth muscle cells; assay: Growth inhibition against smooth muscle cells (PDGF-BB stimulated, XTT method); type: cell-based; conditions: Sus scrofa, 72 h, pig aorta cells, PDGF-BB 20 ng/ml, 3 days, read-out: Growth Inhibitory effect against smooth muscle cells IC50
Source text: Test Example 2 Growth Inhibition Against Smooth Muscle Cells
Vascular smooth muscle cells were isolated from a pig aorta by explantation and used for the test. The cells were put into wells of a 96-well plate (8000 cells/well) and cultured in Dulbecco's modified Eagle's medium (DMEM; Nissui Pharmaceutical Co., Ltd.) containing 10% fetal bovine serum (FBS; Hyclone) for 4 days. Then, the cells were further cultured in DMEM containing 0.1% FBS for 3 days, and were synchronized at the cell growth stationary phase.
To each well was added DMEM containing 0.1% FBS and a test sample at a varied concentration, and the cell growth was brought about by PDGF-BB (SIGMA, final concentration: 20 ng/ml). After culturing for 3 days, the cell growth was measured using the cell growth assay kit (Boehringer Mannheim) according to the XTT method [J. Immunol. Methods, 142, 257-265 (1991)], and the cell growth score was calculated by the following equation.
P100: Absorbance by XTT reagent when stimulated by PDGF-BB
P0: Absorbance by XTT reagent when not stimulated by PDGF-BB
M: Absorbance by XTT reagent after addition of a sample when stimulated by PDGF-BB

human β-PDGF receptor = biological target: T1, human β-PDGF receptor (Homo sapiens, UniProt P09619); assay: Inhibitory effect on phosphorylation of PDGF receptor; type: cell-based; conditions: CHO cells expressing human β-PDGF receptor
T1 construct: expressed in transfected cells; host or cells: Chinese hamster ovary cells (CHO)
T1 sequence (P09619 33-1106): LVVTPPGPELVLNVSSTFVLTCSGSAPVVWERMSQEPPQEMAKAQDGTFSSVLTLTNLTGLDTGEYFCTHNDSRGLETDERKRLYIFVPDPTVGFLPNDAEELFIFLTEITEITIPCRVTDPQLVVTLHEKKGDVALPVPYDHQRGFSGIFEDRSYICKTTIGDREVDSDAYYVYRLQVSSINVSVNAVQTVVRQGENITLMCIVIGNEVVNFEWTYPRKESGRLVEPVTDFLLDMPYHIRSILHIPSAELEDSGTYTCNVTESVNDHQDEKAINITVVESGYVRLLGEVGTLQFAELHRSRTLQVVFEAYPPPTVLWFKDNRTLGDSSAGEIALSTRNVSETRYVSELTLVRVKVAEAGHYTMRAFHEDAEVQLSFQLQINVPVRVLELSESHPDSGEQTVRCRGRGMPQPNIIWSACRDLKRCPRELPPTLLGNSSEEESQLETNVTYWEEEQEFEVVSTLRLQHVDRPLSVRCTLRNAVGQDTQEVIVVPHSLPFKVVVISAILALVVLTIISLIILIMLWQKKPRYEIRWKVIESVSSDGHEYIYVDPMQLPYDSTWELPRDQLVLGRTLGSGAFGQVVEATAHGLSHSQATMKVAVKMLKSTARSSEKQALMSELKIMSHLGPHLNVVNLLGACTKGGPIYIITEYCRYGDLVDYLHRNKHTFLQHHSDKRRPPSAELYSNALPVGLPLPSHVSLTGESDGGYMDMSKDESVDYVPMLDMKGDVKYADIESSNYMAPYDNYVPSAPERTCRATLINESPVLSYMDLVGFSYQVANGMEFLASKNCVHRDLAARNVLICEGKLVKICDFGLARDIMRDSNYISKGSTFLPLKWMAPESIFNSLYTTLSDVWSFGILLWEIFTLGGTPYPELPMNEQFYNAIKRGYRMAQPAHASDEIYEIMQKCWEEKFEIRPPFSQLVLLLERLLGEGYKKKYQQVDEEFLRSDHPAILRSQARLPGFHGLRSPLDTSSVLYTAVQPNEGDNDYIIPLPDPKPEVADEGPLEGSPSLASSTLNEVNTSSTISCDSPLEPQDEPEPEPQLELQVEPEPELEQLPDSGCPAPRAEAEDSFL
Method: Test Example 1 Inhibitory Effect on Phosphorylation of PDGF Receptor
The test was carried out according to the method described in the literature [Dah-Shuhn et al., J. Biol. Chem., 266, 413-418 (1991)], using Chinese hamster ovary cells (CHO) wherein human β-PDGF receptor cDNA was introduced and expressed.

Lewis rats = assay: Rat adjuvant arthritis model; type: in vivo; conditions: 3 mg/ml suspension, 1 ml/100 g orally once a day; for inhibition at 3000 µg/mL (stock): Rattus norvegicus, po, 120 h
Method: Test Example 4 Evaluation by the use of a Rat Adjuvant Arthritis Model
Killed cells of Mycobacterium butyricum (Difco Laboratories Inc.) were disrupted in agate mortar and suspended in liquid paraffin to the final concentration of 6.6 mg/ml, followed by sterilization with high pressure steam. Then, 100 μl of the suspension was intradermaly injected into the right hind foot pad of each animal of groups of female 8-weeks-old Lewis rats (Charles River Japan) (6 animals/group) to induce adjuvant arthritis. A test compound was suspended in a 0.5% solution of methylcellulose to the final concentration of 3 mg/ml, and from just before the induction of arthritis, the suspension was orally administered in an amount of 1 ml/100 g of the body weight once a day, 5 days a week. To a control group was administered a 0.5% solution of methylcellulose. A normal group was given no adjuvant treatment or test compound administration. The administration of the test compound was continued till the 18th day after the adjuvant treatment. On the 17th day, the number of leukocytes in peripheral blood was counted, and on the 18th day, all the blood was collected, followed by dissection. The change in body weight with the passage of time, the change of edema in hind paw with the passage of time, the weight of spleen and thymus, the number of leukocytes in peripheral blood, the hydroxyproline content of urine, the glucosaminoglycan content of urine, the SH concentration in serum, the concentration of nitrogen monoxide in serum and the concentration of mucoprotein in serum were measured and evaluated. The volume of both hind paws was measured using a rat's hind foot edema measurement device (TK-101, Unicom). The number of leukocytes in peripheral blood was counted using an automatic multichannel blood cell counter (Sysmex K-2000, Toa Iyo Denshi Co., Ltd.). The hydroxyproline content of urine was measured according to the method described in Ikeda, et al., Annual Report of Tokyo Metropolitan Research Laboratories P. H., 36, 277 (1985), and the glucosaminoglycan content was measured according to the method described in Moriyama, et al., Hinyo Kiyo, 40, 565 (1994) and Klompmakers, et al., Analytical Biochemistry, 153, 80 (1986). […] The concentration of mucoprotein was measured using Aspro GP Kit (Otsuka Pharmaceutical Co., Ltd.). The percentage of inhibition for each indication was calculated according to the following equation.
% Inhibition={(Control group−Compound-administered group)/(Control group−Normal group)}×100

melting point [°C]	IC50 (human β-PDGF receptor) [nM]	Structure (SMILES)	IC50 [1] [nM]	other results
252 to 254		COc1cc2ncnc(N3CCN(C(=O)Nc4ccc(C(C)C)cc4)CC3)c2cc1OC [Compound 19, 4-(6,7-Dimethoxy-4-quinazolinyl)-N-(4-isopropylphenyl)-1-piperazinecarboxamide]	180	
223 to 228	160	COc1cc2ncnc(N3CCN(C(=O)Nc4ccc(Br)cc4)CC3)c2cc1OC [Compound 45, N-(4-bromophenyl)-4-(6,7-dimethoxy-4-quinazolinyl)-1-piperazinecarboxamide]	80	
		COc1cc2ncnc(N3CCN(C(=O)Nc4ccc(Oc5ccccc5)cc4)CC3)c2cc1OC [Compound 60, 4-(6,7-Dimethoxy-4-quinazolinyl)-N-(4-phenoxyphenyl)-1-piperazinecarboxamide]	30	
272 to 274		COc1cc2ncnc(N3CCN(C(=O)Nc4ccc([N+](=O)[O-])cc4)CC3)c2cc1OC [Compound 77, 4-(6,7-dimethoxy-4-quinazolinyl)-N-(4-nitrophenyl)-1-piperazinecarboxamide]	100	
177 to 178	580	COc1cc2ncnc(N3CCN(C(=S)Nc4ccccc4[N+](=O)[O-])CC3)c2cc1OC [Compound 78, 4-(6,7-Dimethoxy-4-quinazolinyl)-N-(2-nitrophenyl)-1-piperazinethiocarboxamide]	740	
140 to 143	120	COc1cc2ncnc(N3CCN(C(=S)Nc4cccc([N+](=O)[O-])c4)CC3)c2cc1OC [Compound 79, 4-(6,7-Dimethoxy-4-quinazolinyl)-N-(3-nitrophenyl)-1-piperazinethiocarboxamide]	140	
244 to 246	310	COc1cc2ncnc(N3CCN(C(=O)Nc4ccc(N=Nc5ccccc5)cc4)CC3)c2cc1OC [Compound 229, 4-(6,7-Dimethoxy-4-quinazolinyl)-N-(4-phenylazophenyl)-1-piperazinecarboxamide]		
274 to 275		COc1cc2ncnc(N3CCN(C(=O)Nc4ccc(C#N)cc4)CC3)c2cc1OC [Compound 239, N-(4-Cyanophenyl)-4-(6,7-dimethoxy-4-quinazolinyl)-1-piperazinecarboxamide]		Volume of left hind foot (Lewis rats; 5 days a week, normal 1.12 ± 0.03, sensitized control 1.84 ± 0.18): 1.52 ± 0.16 mL; Weight of spleen (Lewis rats; normal 21.4 ± 0.3, sensitized control 53.8 ± 3.8, P < 0.05 vs control): 40.4 ± 2.5 mg/10 g of body weight; Body weight (Lewis rats; normal 191 ± 5, sensitized control 146 ± 4, P < 0.05 vs control): 159 ± 2 g; inhibition at 3000 µg/mL (stock) (Lewis rats; 5 days a week, read-out: Inhibition rate (NO concentration)): 42%; inhibition at 3000 µg/mL (stock) (Lewis rats; 5 days a week, read-out: Inhibition rate (body weight)): 29%; inhibition at 3000 µg/mL (stock) (Lewis rats; 5 days a week, read-out: Inhibition rate (volume of left hind foot)): 44%; inhibition at 3000 µg/mL (stock) (Lewis rats; 5 days a week, read-out: Inhibition rate (weight of spleen)): 41%; NO concentration (Lewis rats; serum, normal 11.1 ± 1.0, sensitized control 56.6 ± 7.0): 37.6 ± 4.0 µM
186 to 187	500	COc1cc2ncnc(N3CCN(C(=S)NCc4ccc(C#N)cc4)CC3)c2cc1OC [Compound 240, N-(4-Cyanobenzyl)-4-(6,7-dimethoxy-4-quinazolinyl)-1-piperazinethiocarboxamide]		
192 to 193	400	COc1cc2ncnc(N3CCN(C(=S)Nc4cccc(C(C)=O)c4)CC3)c2cc1OC [Compound 241, N-(3-Acetylphenyl)-4-(6,7-dimethoxy-4-quinazolinyl)-1-piperazinethiocarboxamide]		
149 to 150	460	COc1cc2ncnc(N3CCN(C(=S)Nc4ccc(S(=O)(=O)N5CCCCC5)cc4)CC3)c2cc1OC [Compound 254, 4-(6,7-Dimethoxy-4-quinazolinyl)-N-(4-piperidinosulfonylphenyl)-1-piperazinethiocarboxamide]		
213 to 215	660	COc1cc2ncnc(N3CCN(C(=O)Nc4ccoc4)CC3)c2cc1OC [Compound 255, 4-(6,7-Dimethoxy-4-quinazolinyl)-N-(3-furyl)-1-piperazinecarboxamide]		
252 to 254	1400	COc1cc2ncnc(N3CCN(C(=O)Nc4ccc(-n5cccc5)nc4)CC3)c2cc1OC [Compound 283, 4-(6,7-Dimethoxy-4-quinazolinyl)-N-[2-(1-pyrrolyl)-5-pyridyl]-1-piperazinecarboxamide]		
244 to 246	760	Cc1ccc2ncnc(N3CCN(C(=O)Nc4ccc(Oc5ccccc5)cc4)CC3)c2c1 [Compound 292, 4-(6-Methyl-4-quinazolinyl)-N-(4-phenoxyphenyl)-1-piperazinecarboxamide]		
186 to 187	330	O=C(Nc1ccc(Oc2ccccc2)cc1)N1CCN(c2ncnc3ccc(F)cc23)CC1 [Compound 297, 4-(6-Fluoro-4-quinazolinyl)-N-(4-phenoxyphenyl)-1-piperazinecarboxamide]		
184 to 185	260	Cc1ccc2c(N3CCN(C(=O)Nc4ccc(Oc5ccccc5)cc4)CC3)ncnc2c1 [Compound 312, 4-(7-Methyl-4-quinazolinyl)-N-(4-phenoxyphenyl)-1-piperazinecarboxamide]		
190 to 191	190	O=C(Nc1ccc(Oc2ccccc2)cc1)N1CCN(c2ncnc3cc(Cl)c([N+](=O)[O-])cc23)CC1 [Compound 357, 4-(7-Chloro-6-nitro-4-quinazolinyl)-N-(4-phenoxyphenyl)-1-piperazinecarboxamide]		
107 to 110	1470	S=C(NCc1cccnc1)N1CCN(c2ncnc3cc4ccccc4cc23)CC1 [Compound 366, 4-(4-Benzo[g]quinazolinyl)-N-(3-picolyl)-1-piperazinethiocarboxamide]		
165 to 166	380	COc1cc2ncnc(N3C[C@@H](C)N(C(=S)NCc4ccccc4)[C@@H](C)C3)c2cc1OC [Compound 433, N-Benzyl-4-(6,7-dimethoxy-4-quinazolinyl)-(cis-2,6-dimethyl)-1-piperazinethiocarboxamide]		

Structure (SMILES)	melting point [°C]	IC50 (human β-PDGF receptor) [nM]	IC50 [1] [nM]	other results
COc1cc2ncnc(N3CCN(C(=S)Nc4ccc(CNC(=O)OC(C)(C)C)cc4)CC3)c2cc1OC [Compound 228, N-[4-(N-tert-Butoxycarbonylaminomethyl)phenyl]-4-(6,7-dimethoxy-4-quinazolinyl)-1-piperazinethiocarboxamide]	123 to 126	290		
